{"source": "patent US6531488B1", "about": "“Method of treating neurodegenerative diseases” (Merck & Co., Inc., priority 1998, dated 2003)", "origin": "cited, not measured here", "tested_on": "patients with Alzheimer's disease", "conditions": "ARICEPT administered alone; patients diagnosed by NINCDS and DMS III-R criteria; assessed with ADAS-cog and CIBIC", "note": "Where a name gives a salt, the structure may show the parent alone.", "data": [{"smiles": "COc1cc2c(cc1OC)C(=O)C(CC1CCN(Cc3ccccc3)CC1)C2", "note": "(racemic) [ARICEPT, (±)-2,3-dihydro-5,6-diomethoxy-2-[[1-(phenylmethyl)-4-piperidinyl]methyl]-1H-indene-1-one hydrochloride]", "values": [{"measurement": "effectiveness for the treatment of the symptoms of Alzheimer's disease", "value": "effective"}]}]}
